# From patent publication US20170042152A1, “SAFENED HERBICIDAL COMPOSITIONS COMPRISING PYRIDINE CARBOXYLIC ACIDS” (priority 2015, published 2017)
# Key:
# Canada thistle (CIRAR) [1] = test: Greenhouse postemergence trial, weed efficacy; type: in vivo, Cirsium arvense; conditions: herbicide 0 g ae/ha, 20-22 d
# Procedure: (§1) Seeds of the desired test plant species were planted in Sun Gro MetroMix® 306 planting mixture, which typically has a pH of 6.0 to 6.8 and an organic matter content of about 30 percent, in plastic pots with a surface area of 103.2 square centimeters (cm^2). When required to ensure good germination and healthy plants, a fungicide treatment and/or other chemical or physical treatment was applied. The plants were grown for 7-36 days (d) in a greenhouse with an approximate 14-hour (h) photoperiod which was maintained at about 18° C. during the day and 17° C. during the night. Nutrients and water were added on a regular basis and supplemental lighting was provided with overhead metal halide 1000-Watt lamps as necessary. The plants were employed for testing when they reached the second or third true leaf stage.
# (§2) Weighed amounts of technical material were dissolved in a volume of 97:3 volume per volume (v/v) acetone/dimethyl sulfoxide (DMSO) to stock solutions. […] Compound requirements are based upon a 12 milliliter (mL) application volume at a rate of 187 liters per hectare (L/ha). Stock solutions of the safeners were prepared following the same procedure. Spray solutions of the safeners and experimental compound mixtures were prepared by adding the stock solutions to the appropriate amount of dilution solution to form a 12 mL spray solution in two-way combinations. Formulated compounds were applied to the plant material with an overhead Mandel track sprayer equipped with 8002E nozzles calibrated to deliver 187 L/ha over an application area of 0.503 square meters (m^2) at a spray height of 18 inches (43 centimeters (cm)) above average plant canopy. […]
# (§3) The treated plants and control plants were placed in a greenhouse as described above and watered by sub-irrigation to prevent wash-off of the test compounds. After 20-22 d, the condition of the test plants as compared with that of the control plants was determined visually and scored on a scale of 0 to 100 percent where 0 corresponds to no injury and 100 corresponds to complete kill. […]
# kochia (KCHSC) = test: Greenhouse postemergence trial, weed efficacy; type: in vivo, Kochia scoparia; conditions: herbicide 0 g ae/ha, 20-22 d
# Procedure: as §1
# (§4) Weighed amounts of technical material were dissolved in a volume of 97:3 volume per volume (v/v) acetone/dimethyl sulfoxide (DMSO) to stock solutions. […] Compound requirements are based upon a 12 milliliter (mL) application volume at a rate of 187 liters per hectare (L/ha). Stock solutions of the safeners were prepared following the same procedure. Spray solutions of the safeners and experimental compound mixtures were prepared by adding the stock solutions to the appropriate amount of dilution solution to form a 12 mL spray solution in two-way combinations. Formulated compounds were applied to the plant material with an overhead Mandel track sprayer equipped with 8002E nozzles calibrated to deliver 187 L/ha over an application area of 0.503 square meters (m^2) at a spray height of 18 inches (43 centimeters (cm)) above average plant canopy. Control plants were sprayed in the same manner with the solvent blank.
# (§5) The treated plants and control plants were placed in a greenhouse as described above and watered by sub-irrigation to prevent wash-off of the test compounds. After 20-22 d, the condition of the test plants as compared with that of the control plants was determined visually and scored on a scale of 0 to 100 percent where 0 corresponds to no injury and 100 corresponds to complete kill. Colby's equation was used to determine the herbicidal effects expected from the mixtures.
# pigweed (AMARE) = test: Greenhouse postemergence trial, weed efficacy; type: in vivo, Amaranthis retroflexus; conditions: herbicide 0 g ae/ha, 20-22 d
# Procedure: as §1, §2, §3
# Russian thistle (SASKR) = test: Greenhouse postemergence trial, weed efficacy; type: in vivo, Salsola iberica; conditions: herbicide 0 g ae/ha, 20-22 d
# Procedure: as §1, §4, §5
# [2] = system: bird's-eye speedwell (VERPE); test: Greenhouse postemergence trial, weed efficacy; type: in vivo, Veronica persica; conditions: herbicide 0 g ae/ha, 20-22 d
# Procedure: as §1, §4, §5
# spring barley (HORVS) = test: Greenhouse postemergence safening trial, crop phytotoxicity; type: in vivo, Hordeum vulgare; conditions: herbicide 0 g ae/ha, 20-22 d
# Procedure: as §1, §4, §5
# lambsquarters (CHEAL) [3] = test: Greenhouse postemergence trial, weed efficacy; type: in vivo, Chenopodium album; conditions: herbicide 0 g ae/ha, 20-22 d
# Procedure: as §1, §4, §5
# wild mustard (SINAR) = test: Greenhouse postemergence trial, weed efficacy; type: in vivo, Sinapis arvensis; conditions: herbicide 0 g ae/ha, 20-22 d
# Procedure: as §1, §4, §5
# shepherd's purse (CAPBP) = test: Greenhouse postemergence trial, weed efficacy; type: in vivo, Capsella bura-pastoris; conditions: herbicide 0 g ae/ha, 20-22 d
# Procedure: as §1, §4, §5
# wild chamomile (MATCH) = test: Greenhouse postemergence trial, weed efficacy; type: in vivo, Matricaria chamomilla; conditions: herbicide 0 g ae/ha, 20-22 d
# Procedure: as §1, §2, §3
# spring wheat (TRZAS) = test: Greenhouse postemergence safening trial, crop phytotoxicity; type: in vivo, Triticum aestivum; conditions: herbicide 0 g ae/ha, 20-22 d
# Procedure: as §1, §4, §5
# winter wheat (TRZAW) [4] = test: as above; type: in vivo, Triticum aestivum; conditions: herbicide 0 g ae/ha, 20-22 d
# Procedure: as §1, §4, §5
# wild pansy (VIOTR) = test: Greenhouse postemergence trial, weed efficacy; type: in vivo, Viola tricolor; conditions: herbicide 0 g ae/ha, 20-22 d
# Procedure: as §1, §4, §5
# wild buckwheat (POLCO) = test: Greenhouse postemergence trial, weed efficacy; type: in vivo, Polygonum convulvus; conditions: herbicide 0 g ae/ha, 20-22 d
# Procedure: as §1, §4, §5
# durum wheat (TRZDU) = test: Small plot field trial, crop safety; type: in vivo, Triticum durum; conditions: 20 g ae/ha herbicide (triisopropanol amine salt), no safener, post-emergence, mean
# Procedure: (§6) The triisopropanol amine salts of herbicides of formulas I-G-A, I-G-B and I-G-C were tested with and without cloquintocet-mexyl in small plot field trials across various ecozones to evaluate the crop safety of these compounds on […] cereals including winter wheat and durum wheat.
# (§7) All herbicide treatments were applied post-emergence in the spring to early summer. Herbicides were applied with bicycle or tractor-mounted sprayers using carbon dioxide (CO2) as a propellant. The sprayers delivered a uniform spray pattern that provided thorough coverage of the foliage using a 150 or 200 L/ha spray volume. At the time of herbicide applications, winter wheat was at the two leaf growth stage and durum wheat was at the 2-3 leaf growth stage.
# (§8) Phytotoxicity to cereal crops was visually assessed as percent overall injury, compared to an untreated control plot. The overall injury assessments were based on visual ratings of growth inhibition, chlorosis, and delay in maturity. At late ratings (54-57 days after application), percent visual seed head deformity and reduction in seed formation were also assessed. Trials were designed as randomized complete blocks with four replicates. In general, three to four replicates were assessed for each treatment.
# Canada thistle (CIRAR) [5] = test: Small plot field trial, weed growth reduction; type: in vivo, Cirsuim arvensis; conditions: 20 g ae/ha herbicide (triisopropanol amine salt), no safener, post-emergence, mean
# lambsquarters (CHEAL) [6] = test: Small plot field trial, weed growth reduction; type: in vivo, Chenopodium album; conditions: 20 g ae/ha herbicide (triisopropanol amine salt), no safener, post-emergence, mean
# winter wheat (TRZAW) [7] = test: Small plot field trial, crop safety; type: in vivo, Triticum aestivum; conditions: 20 g ae/ha herbicide (triisopropanol amine salt), no safener, post-emergence, mean
# Procedure: as §6, §7, §8
# [8] = cloquintocet-mexyl 4.375 g ai/ha
# [9] = cloquintocet-mexyl 8.75 g ai/ha
# [10] = cloquintocet-mexyl 17.5 g ai/ha
smiles,measurement,setting,value
"CCCCCC(C)OC(=O)COc1ccc(Cl)c2cccnc12 (centres unmarked) [Cloquintocet-mexyl, cloquintocet-mexyl]",% visual injury CIRAR Ob,Canada thistle (CIRAR) [1]; cloquintocet-mexyl 20 g ai/ha,0%
same,% visual injury CIRAR Ob,Canada thistle (CIRAR) [1]; cloquintocet-mexyl 40 g ai/ha,0%
same,% visual injury CIRAR Ob,Canada thistle (CIRAR) [1]; cloquintocet-mexyl 80 g ai/ha,0%
same,% visual injury KCHSC Ob,kochia (KCHSC); [8],0%
same,% visual injury KCHSC Ob,kochia (KCHSC); [9],0%
same,% visual injury KCHSC Ob,kochia (KCHSC); [10],0%
same,% visual injury KCHSC Ob,kochia (KCHSC); cloquintocet-mexyl 20 g ai/ha,0%
same,% visual injury KCHSC Ob,kochia (KCHSC); cloquintocet-mexyl 35 g ai/ha,0%
same,% visual injury KCHSC Ob,kochia (KCHSC); cloquintocet-mexyl 40 g ai/ha,0%
same,% visual injury KCHSC Ob,kochia (KCHSC); cloquintocet-mexyl 70 g ai/ha,0%
same,% visual injury KCHSC Ob,kochia (KCHSC); cloquintocet-mexyl 80 g ai/ha,0%
same,% visual injury AMARE Ob,pigweed (AMARE); cloquintocet-mexyl 20 g ai/ha,0%
same,% visual injury AMARE Ob,pigweed (AMARE); cloquintocet-mexyl 40 g ai/ha,0%
same,% visual injury AMARE Ob,pigweed (AMARE); cloquintocet-mexyl 80 g ai/ha,0%
same,% visual injury SASKR Ob,Russian thistle (SASKR); [8],0%
same,% visual injury SASKR Ob,Russian thistle (SASKR); [9],0%
same,% visual injury SASKR Ob,Russian thistle (SASKR); [10],0%
same,% visual injury SASKR Ob,Russian thistle (SASKR); cloquintocet-mexyl 35 g ai/ha,0%
same,% visual injury SASKR Ob,Russian thistle (SASKR); cloquintocet-mexyl 70 g ai/ha,0%
same,% visual injury VERPE Ob,[2]; [8],0%
same,% visual injury VERPE Ob,[2]; [9],0%
same,% visual injury VERPE Ob,[2]; [10],0%
same,% visual injury VERPE Ob,[2]; cloquintocet-mexyl 35 g ai/ha,0%
same,% visual injury VERPE Ob,[2]; cloquintocet-mexyl 70 g ai/ha,0%
same,% visual injury HORVS Ob,spring barley (HORVS); [8],0%
same,% visual injury HORVS Ob,spring barley (HORVS); [9],0%
same,% visual injury HORVS Ob,spring barley (HORVS); [10],0%
same,% visual injury HORVS Ob,spring barley (HORVS); cloquintocet-mexyl 20 g ai/ha,0%
same,% visual injury HORVS Ob,spring barley (HORVS); cloquintocet-mexyl 35 g ai/ha,0%
same,% visual injury HORVS Ob,spring barley (HORVS); cloquintocet-mexyl 40 g ai/ha,0%
same,% visual injury HORVS Ob,spring barley (HORVS); cloquintocet-mexyl 70 g ai/ha,0%
same,% visual injury HORVS Ob,spring barley (HORVS); cloquintocet-mexyl 80 g ai/ha,0%
same,% visual injury CHEAL Ob,lambsquarters (CHEAL) [3]; cloquintocet-mexyl 20 g ai/ha,0%
same,% visual injury CHEAL Ob,lambsquarters (CHEAL) [3]; cloquintocet-mexyl 40 g ai/ha,0%
same,% visual injury CHEAL Ob,lambsquarters (CHEAL) [3]; cloquintocet-mexyl 80 g ai/ha,0%
same,% visual injury SINAR Ob,wild mustard (SINAR); cloquintocet-mexyl 20 g ai/ha,0%
same,% visual injury SINAR Ob,wild mustard (SINAR); cloquintocet-mexyl 40 g ai/ha,0%
same,% visual injury SINAR Ob,wild mustard (SINAR); cloquintocet-mexyl 80 g ai/ha,0%
same,% visual injury CAPBP Ob,shepherd's purse (CAPBP); cloquintocet-mexyl 20 g ai/ha,0%
same,% visual injury CAPBP Ob,shepherd's purse (CAPBP); cloquintocet-mexyl 40 g ai/ha,0%
same,% visual injury CAPBP Ob,shepherd's purse (CAPBP); cloquintocet-mexyl 80 g ai/ha,0%
same,% visual injury MATCH Ob,wild chamomile (MATCH); cloquintocet-mexyl 20 g ai/ha,0%
same,% visual injury MATCH Ob,wild chamomile (MATCH); cloquintocet-mexyl 40 g ai/ha,0%
same,% visual injury MATCH Ob,wild chamomile (MATCH); cloquintocet-mexyl 80 g ai/ha,0%
same,% visual injury TRZAS Ob,spring wheat (TRZAS); [8],0%
same,% visual injury TRZAS Ob,spring wheat (TRZAS); [9],0%
same,% visual injury TRZAS Ob,spring wheat (TRZAS); [10],0%
same,% visual injury TRZAS Ob,spring wheat (TRZAS); cloquintocet-mexyl 35 g ai/ha,0%
same,% visual injury TRZAS Ob,spring wheat (TRZAS); cloquintocet-mexyl 70 g ai/ha,0%
same,% visual injury TRZAW Ob,winter wheat (TRZAW) [4]; cloquintocet-mexyl 20 g ai/ha,0%
same,% visual injury TRZAW Ob,winter wheat (TRZAW) [4]; cloquintocet-mexyl 40 g ai/ha,0%
same,% visual injury TRZAW Ob,winter wheat (TRZAW) [4]; cloquintocet-mexyl 80 g ai/ha,0%
same,% visual injury VIOTR Ob,wild pansy (VIOTR); [8],0%
same,% visual injury VIOTR Ob,wild pansy (VIOTR); [9],0%
same,% visual injury VIOTR Ob,wild pansy (VIOTR); [10],0%
same,% visual injury VIOTR Ob,wild pansy (VIOTR); cloquintocet-mexyl 20 g ai/ha,0%
same,% visual injury VIOTR Ob,wild pansy (VIOTR); cloquintocet-mexyl 35 g ai/ha,0%
same,% visual injury VIOTR Ob,wild pansy (VIOTR); cloquintocet-mexyl 40 g ai/ha,0%
same,% visual injury VIOTR Ob,wild pansy (VIOTR); cloquintocet-mexyl 70 g ai/ha,0%
same,% visual injury VIOTR Ob,wild pansy (VIOTR); cloquintocet-mexyl 80 g ai/ha,0%
same,% visual injury POLCO Ob,wild buckwheat (POLCO); [8],0%
same,% visual injury POLCO Ob,wild buckwheat (POLCO); [9],0%
same,% visual injury POLCO Ob,wild buckwheat (POLCO); [10],0%
same,% visual injury POLCO Ob,wild buckwheat (POLCO); cloquintocet-mexyl 35 g ai/ha,0%
same,% visual injury POLCO Ob,wild buckwheat (POLCO); cloquintocet-mexyl 70 g ai/ha,0%
CC(F)c1nc(C(=O)O)c(Cl)c(N)c1F (centres unmarked) [formula I-G-B],"TRZDU Visual head deformation, % of untreated",durum wheat (TRZDU),6.4 % of untreated
same,"TRZDU Visual injury, % of untreated",durum wheat (TRZDU),6.4 % of untreated
same,"Growth reduction of CIRAR, % of untreated",Canada thistle (CIRAR) [5],85 % of untreated
same,"Growth reduction of CHEAL, % of untreated",lambsquarters (CHEAL) [6],100 % of untreated
same,"Instances of TRZAW grain reduction, % of untreated",winter wheat (TRZAW) [7],83.3 % of untreated
same,"TRZAW grain formation reduction, % of untreated",winter wheat (TRZAW) [7],68.3 % of untreated
CC(F)(F)c1nc(C(=O)O)c(Cl)c(N)c1F [formula I-G-C],"TRZDU Visual head deformation, % of untreated",durum wheat (TRZDU),23.6 % of untreated
same,"TRZDU Visual injury, % of untreated",durum wheat (TRZDU),33.6 % of untreated
same,"Growth reduction of CHEAL, % of untreated",lambsquarters (CHEAL) [6],100 % of untreated
